Source: patent US9840495B2, “Oxindole derivatives carrying a piperidyl-substituted azetidinyl substituent and use thereof for treating vasopressine-related diseases” (AbbVie Deutschland GmbH & Co. KG, priority 2013, dated 2017)
pKi: −log10 of the molar value.

How the values were obtained:
[1] = biological target: T1, human vasopressin V1b receptor (Homo sapiens, UniProt P47901); experiment: biochemical
T1 sequence (P47901 1-424): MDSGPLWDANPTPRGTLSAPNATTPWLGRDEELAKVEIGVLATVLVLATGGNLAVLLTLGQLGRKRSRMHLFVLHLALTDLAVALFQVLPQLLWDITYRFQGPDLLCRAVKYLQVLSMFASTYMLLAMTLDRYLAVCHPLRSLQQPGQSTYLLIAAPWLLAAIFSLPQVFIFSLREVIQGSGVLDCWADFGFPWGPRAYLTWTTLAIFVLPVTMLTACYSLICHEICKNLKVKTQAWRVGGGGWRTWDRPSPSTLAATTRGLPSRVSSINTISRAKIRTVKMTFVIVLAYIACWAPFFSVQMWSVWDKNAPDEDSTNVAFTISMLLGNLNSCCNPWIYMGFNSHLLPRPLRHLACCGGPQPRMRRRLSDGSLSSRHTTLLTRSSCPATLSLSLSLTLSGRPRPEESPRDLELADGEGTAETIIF

[2] = biological target: human vasopressin V1a receptor (Homo sapiens, UniProt P37288); experiment: Vasopressin V1a receptor binding assay (125I-AVP displacement, CHO-K1 membranes); settings: selectivity quotient, human V1a vs human V1b receptor binding
Chain of human vasopressin V1a receptor (P37288 whole entry): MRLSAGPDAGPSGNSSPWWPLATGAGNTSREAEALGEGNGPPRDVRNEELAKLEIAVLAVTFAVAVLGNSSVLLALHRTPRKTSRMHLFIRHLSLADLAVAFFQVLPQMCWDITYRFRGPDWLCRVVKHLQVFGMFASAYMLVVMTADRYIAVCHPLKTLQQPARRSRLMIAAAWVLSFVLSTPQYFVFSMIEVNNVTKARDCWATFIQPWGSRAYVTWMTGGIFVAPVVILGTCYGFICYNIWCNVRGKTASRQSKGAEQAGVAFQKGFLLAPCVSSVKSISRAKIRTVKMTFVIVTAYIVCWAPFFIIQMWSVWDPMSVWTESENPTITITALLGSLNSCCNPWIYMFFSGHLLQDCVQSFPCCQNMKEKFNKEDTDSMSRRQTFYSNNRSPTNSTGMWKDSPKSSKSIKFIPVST

SMILES | pKi [1] | Ki(h-V1a)/Ki(h-V1b) [2]
CCOc1ncccc1[C@]1(NC(=O)N2CC(N3CCC(N4CCOCC4)CC3)C2)C(=O)N(S(=O)(=O)c2ccc(OC)cc2OC)c2ccc(C#N)cc21 [Example 1, (S)—N-(5-cyano-1-((2,4-dimethoxyphenyl)sulfonyl)-3-(2-ethoxypyridin-3-yl)-2-oxoindolin-3-yl)-3-(4-morpholinopiperidin-1-yl)azetidine-1-carboxamide] | > 9.00 | +++ (>75)
COc1ccc(S(=O)(=O)N2C(=O)[C@@](NC(=O)N3CC(N4CCC(N5CCOCC5)CC4)C3)(c3cccnc3OC)c3cc(C#N)ccc32)c(OC)c1 [Example 3, (S)—N-(5-Cyano-1-((2,4-dimethoxyphenyl)sulfonyl)-3-(2-methoxypyridin-3-yl)-2-oxoindolin-3-yl)-3-(4-morpholinopiperidin-1-yl)azetidine-1-carboxamide] | > 9.00 | +++ (>75)
CCOc1ncccc1[C@]1(NC(=O)N2CC(N3CCC(N4CCC5(CC4)COC5)CC3)C2)C(=O)N(S(=O)(=O)c2ccc(OC)cc2OC)c2ccc(C#N)cc21 [Example 6, (S)-3-(4-(2-Oxa-7-Azaspiro[3.5]nonan-7-yl)piperidin-1-yl)-N-(5-cyano-1-((2,4-dimethoxyphenyl)sulfonyl)-3-(2-ethoxypyridin-3-yl)-2-oxoindolin-3-yl)azetidine-1-carboxamide] | 8.00 to 9.00 | +++ (>75)
CCOc1ncccc1[C@]1(NC(=O)N2CC(N3CCC(N4CCOCC4)CC3)C2)C(=O)N(S(=O)(=O)c2ccc(OC)cc2OC)c2cc(F)c(F)cc21 [Example 8, (S)—N-(1-((2,4-Dimethoxyphenyl)sulfonyl)-3-(2-ethoxypyridin-3-yl)-5,6-difluoro-2-oxoindolin-3-yl)-3-(4-morpholinopiperidin-1-yl)azetidine-1-carboxamide] | > 9.00 | ++ (25-75)
CCOc1ncccc1[C@]1(NC(=O)N2CC(N3CCC(N4CCOCC4)CC3)C2)C(=O)N(S(=O)(=O)c2ccc(OC)cc2OC)c2cc(F)c(C#N)cc21 [Example 9, (S)—N-(5-Cyano-1-((2,4-dimethoxyphenyl)sulfonyl)-3-(2-ethoxypyridin-3-yl)-6-fluoro-2-oxoindolin-3-yl)-3-(4-morpholinopiperidin-1-yl)azetidine-1-carboxamide] | > 9.00 | ++ (25-75)
CCOc1ncccc1[C@]1(NC(=O)N2CC(N3CCC(N4CCOCC4)CC3)C2)C(=O)N(S(=O)(=O)c2ccc(OC)cc2OC)c2ccc(Cl)cc21 [Example 13, (S)—N-(5-Chloro-1-((2,4-dimethoxyphenyl)sulfonyl)-3-(2-ethoxypyridin-3-yl)-2-oxoindolin-3-yl)-3-(4-morpholinopiperidin-1-yl)azetidine-1-carboxamide] | > 9.00 | 
CCOc1ncccc1[C@]1(NC(=O)N2CC(N3CCC(N4CCCO4)CC3)C2)C(=O)N(S(=O)(=O)c2ccc(OC)cc2OC)c2ccc(C#N)cc21 [Example 17, (S)—N-(5-Cyano-1-((2,4-dimethoxyphenyl)sulfonyl)-3-(2-ethoxypyridin-3-yl)-2-oxoindolin-3-yl)-3-(4-(isoxazolidin-2-yl)piperidin-1-yl)azetidine-1-carboxamide] | 7.00 to 8.00 | +++ (>75)
COc1ccc(S(=O)(=O)N2C(=O)[C@@](NC(=O)N3CC(N4CCC(NC5COC5)CC4)C3)(c3cccnc3OC)c3cc(C#N)ccc32)c(OC)c1 [Example 20, (S)—N-(5-Cyano-1-((2,4-dimethoxyphenyl)sulfonyl)-3-(2-methoxypyridin-3-yl)-2-oxoindolin-3-yl)-3-(4-(oxetan-3-ylamino)piperidin-1-yl)azetidine-1-carboxamide] | 8.00 to 9.00 | + (10-<25)
CCOc1ncccc1[C@]1(NC(=O)N2CC(N3CCC(N4CCOCC4)CC3)C2)C(=O)N(S(=O)(=O)c2ccc(F)cc2F)c2ccc(C#N)cc21 [Example 26, (S)—N-(5-Cyano-1-((2,4-difluorophenyl)sulfonyl)-3-(2-ethoxypyridin-3-yl)-2-oxoindolin-3-yl)-3-(4-morpholinopiperidin-1-yl)azetidine-1-carboxamide] | 8.00 to 9.00 | 

Other lines, results leading:

pKi [1] | Ki(h-V1a)/Ki(h-V1b) [2] | SMILES
> 9.00 | +++ (>75) | CCOc1ncccc1[C@]1(NC(=O)N2CC(N3CCC(N(C)C4COC4)CC3)C2)C(=O)N(S(=O)(=O)c2ccc(OC)cc2OC)c2ccc(C#N)cc21 [Example 2, (S)—N-(5-cyano-1-((2,4-dimethoxyphenyl)sulfonyl)-3-(2-ethoxypyridin-3-yl)-2-oxoindolin-3-yl)-3-(4-(methyl(oxetan-3-yl)amino)piperidin-1-yl)azetidine-1-carboxamide]
8.00 to 9.00 | +++ (>75) | COc1ccc(S(=O)(=O)N2C(=O)[C@@](NC(=O)N3CC(N4CCC(N(C)C5COC5)CC4)C3)(c3cccnc3OC)c3cc(C#N)ccc32)c(OC)c1 [Example 4, (S)—N-(5-Cyano-1-((2,4-dimethoxyphenyl)sulfonyl)-3-(2-methoxypyridin-3-yl)-2-oxoindolin-3-yl)-3-(4-(methyl(oxetan-3-yl)amino)piperidin-1-yl)azetidine-1-carboxamide]
8.00 to 9.00 | +++ (>75) | CCOc1ncccc1[C@]1(NC(=O)N2CC(N3CCC(N(CC)C4COC4)CC3)C2)C(=O)N(S(=O)(=O)c2ccc(OC)cc2OC)c2ccc(C#N)cc21 [Example 5, (S)—N-(5-Cyano-1-((2,4-dimethoxyphenyl)sulfonyl)-3-(2-ethoxypyridin-3-yl)-2-oxoindolin-3-yl)-3-(4-(ethyl(oxetan-3-yl)amino)piperidin-1-yl)azetidine-1-carboxamide]
> 9.00 | +++ (>75) | CCOc1ncccc1[C@]1(NC(=O)N2CC(N3CCC(N(C)C4COC4)CC3)C2)C(=O)N(S(=O)(=O)c2ccc(OC)cc2OC)c2cc(F)c(C#N)cc21 [Example 10, (S)—N-(5-Cyano-1-((2,4-dimethoxyphenyl)sulfonyl)-3-(2-ethoxypyridin-3-yl)-6-fluoro-2-oxoindolin-3-yl)-3-(4-(methyl(oxetan-3-yl)amino)piperidin-1-yl)azetidine-1-carboxamide]
8.00 to 9.00 | ++ (25-75) | CCOc1ncccc1[C@]1(NC(=O)N2CC(N3CCC(N(C)C4COC4)CC3)C2)C(=O)N(S(=O)(=O)c2ccc(OC)cc2OC)c2cc(F)c(F)cc21 [Example 11, N-[(3S)-1-[(2,4-Dimethoxyphenyl)sulfonyl]-3-(2-ethoxypyridin-3-yl)-5,6-difluoro-2-oxo-2,3-dihydro-1H-indol-3-yl]-3-{4-[methyl(oxetan-3-yl)amino]piperidin-1-yl}azetidine-1-carboxamide]
> 9.00 |  | CCOc1ncccc1[C@]1(NC(=O)N2CC(N3CCC(N(C)C4COC4)CC3)C2)C(=O)N(S(=O)(=O)c2ccc(OC)cc2OC)c2ccc(Cl)cc21 [Example 14, (S)—N-(5-Chloro-1-((2,4-dimethoxyphenyl)sulfonyl)-3-(2-ethoxypyridin-3-yl)-2-oxoindolin-3-yl)-3-(4-(methyl(oxetan-3-yl)amino)piperidin-1-yl)azetidine-1-carboxamide]
8.00 to 9.00 | +++ (>75) | CCOc1ncccc1[C@]1(NC(=O)N2CC(N3CCC(N(C)CCOC)CC3)C2)C(=O)N(S(=O)(=O)c2ccc(OC)cc2OC)c2ccc(C#N)cc21 [Example 15, (S)—N-(5-Cyano-1-((2,4-dimethoxyphenyl)sulfonyl)-3-(2-ethoxypyridin-3-yl)-2-oxoindolin-3-yl)-3-(4-((2-methoxyethyl)(methyl)amino)piperidin-1-yl)azetidine-1-carboxamide]
> 9.00 | +++ (>75) | CCOc1ncccc1[C@]1(NC(=O)N2CC(N3CCC(N4CC(C5COC5)C4)CC3)C2)C(=O)N(S(=O)(=O)c2ccc(OC)cc2OC)c2ccc(C#N)cc21 [Example 18, (S)—N-(5-Cyano-1-((2,4-dimethoxyphenyl)sulfonyl)-3-(2-ethoxypyridin-3-yl)-2-oxoindolin-3-yl)-3-(4-(3-(oxetan-3-yl)azetidin-1-yl)piperidin-1-yl)azetidine-1-carboxamide]
> 9.00 | +++ (>75) | CCOc1ncccc1[C@]1(NC(=O)N2CC(N3CCC(N4CC5(COC5)C4)CC3)C2)C(=O)N(S(=O)(=O)c2ccc(OC)cc2OC)c2ccc(C#N)cc21 [Example 19, (S)-3-(4-(2-Oxa-6-azaspiro[3.3]heptan-6-yl)piperidin-1-yl)-N-(5-cyano-1-((2,4-dimethoxyphenyl)sulfonyl)-3-(2-ethoxypyridin-3-yl)-2-oxoindolin-3-yl)azetidine-1-carboxamide]
> 9.00 | + (10-<25) | COc1ccc(S(=O)(=O)N2C(=O)[C@@](NC(=O)N3CC(N4CCC(N(C)C5CCOCC5)CC4)C3)(c3cccnc3OC)c3cc(C#N)ccc32)c(OC)c1 [Example 21, (S)—N-(5-Cyano-1-((2,4-dimethoxyphenyl)sulfonyl)-3-(2-methoxypyridin-3-yl)-2-oxoindolin-3-yl)-3-(4-(methyl(tetrahydro-2H-pyran-4-yl)amino)piperidin-1-yl)azetidine-1-carboxamide]
8.00 to 9.00 | ++ (25-75) | CCN(C1CCN(C2CN(C(=O)N[C@@]3(c4cccnc4OC)C(=O)N(S(=O)(=O)c4ccc(OC)cc4OC)c4ccc(C#N)cc43)C2)CC1)C1COC1 [Example 23, (S)—N-(5-Cyano-1-((2,4-dimethoxyphenyl)sulfonyl)-3-(2-methoxypyridin-3-yl)-2-oxoindolin-3-yl)-3-(4-(ethyl(oxetan-3-yl)amino)piperidin-1-yl)azetidine-1-carboxamide]
